Data on 14 compounds can be found in PubChem BioAssay (NCI).

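Test compounds were applied to cells in 96-well plates for 48 hours at 5 doses. At the GI50, growth is halved. TGI: total growth inhibition.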

The subject of one assay is OVCAR-3 ovarian. Nature of the assay: NCI anticancer screen, dose series, 48 h.
In the case of `Nc1nccc2c1ccn2-c1ccc(NC(=O)c2ccc(N3CCOCC3)c(C(F)(F)F)c2)cc1`, the GI50 is 1.38 µM and the TGI amounted to 15.7 µM.
Consider `Cc1[nH]c2ccccc2c1-c1cc(-c2cc(-c3c(C)[nH]c4ccccc34)on2)no1`, for which the TGI was over 100 µM.
Consider `Cn1cnc([N+](=O)[O-])c1S(=O)(=O)Oc1ccccc1`, for which the GI50 is 2.14 µM and the TGI came to 4.3 µM.
For `COc1cc(C2c3cc4c(cc3C(O)C(CO)C2CO)OCO4)cc(OC)c1OC` (centres undefined), in that order: 0.372 µM and 1.94 µM.
Consider `CCCNC(=S)/N=C/c1c(O)c2ccccc2[nH]c1=O`, for which the TGI was over 100 µM.
`COC1C(O)=C2C(=O)O/C(C)=C/C=C/C=C/C=C\CC(c3ccccc3)NC(=O)\C=C/C=C\C=C\C=C\[C@@]2(C)[C@@H]1O` (some centres undefined) displayed a TGI of 0.271 µM.
Consider `COc1ccc(-c2oc(=O)ccc2-c2cc(OC)c(OC)c(OC)c2)cc1F`, for which the GI50 was 5.84 µM and the TGI turned out to be 71.9 µM.
For `CC(C)=CCc1cc(O)cc2c1OC(C=C(C)C)C1=C2C(=O)C2=C(NCCS2(=O)=O)C1=O` (centres undefined), in that order: 0.456 µM and 2.01 µM.
`COc1c(OC)c(OC)c(C(=O)/C=C/c2ccccc2)c(OC)c1OC` registered a TGI of 25.1 µM.
Take `N#C/C=C(\c1ccc([N+](=O)[O-])cc1)n1nnc2cc(Cl)c(Cl)cc21`: the GI50 was 1.88 µM and the TGI was determined as 3.91 µM.
For `COc1cc(-c2nn(-c3cccc(NC(=O)Nc4ccc(Cl)c(Cl)c4)c3)cc2-c2ccncc2)ccc1Cl`, in that order: 0.697 µM and 2.27 µM.
As for `O=c1cc(-c2ccccc2)[nH]c2c(S)cccc12`, the TGI was over 100 µM.
Same read-out and setting: then `Cc1ccc(-c2nc3ccc([N+](=O)[O-])cc3[nH]2)cc1`, with over 100 µM.

Another assay deals with TK-10 renal. Nature of the assay: NCI anticancer screen, dose series, 48 h.
For `Nc1nccc2c1ccn2-c1ccc(NC(=O)c2ccc(N3CCOCC3)c(C(F)(F)F)c2)cc1`, the GI50 was 1.52 µM and the TGI was 9.75 µM.
`Cc1[nH]c2ccccc2c1-c1cc(-c2cc(-c3c(C)[nH]c4ccccc34)on2)no1` displayed a TGI of over 100 µM.
On to `Cn1cnc([N+](=O)[O-])c1S(=O)(=O)Oc1ccccc1`, for which the GI50 was 1.99 µM and the TGI is 3.81 µM.
For `COc1cc(C2c3cc4c(cc3C(O)C(CO)C2CO)OCO4)cc(OC)c1OC` (centres undefined), in that order: over 23.2 µM and over 100 µM.
`CCCNC(=S)/N=C/c1c(O)c2ccccc2[nH]c1=O` had a TGI of over 100 µM.
Same read-out and setting: next, `COC1C(O)=C2C(=O)O/C(C)=C/C=C/C=C/C=C\CC(c3ccccc3)NC(=O)\C=C/C=C\C=C\C=C\[C@@]2(C)[C@@H]1O` (some centres undefined): 0.272 µM.
For `COc1ccc(-c2oc(=O)ccc2-c2cc(OC)c(OC)c(OC)c2)cc1F`, the GI50 was 39.4 µM and the TGI is over 100 µM.
For `CC(C)=CCc1cc(O)cc2c1OC(C=C(C)C)C1=C2C(=O)C2=C(NCCS2(=O)=O)C1=O` (centres undefined), in that order: 5.51 µM and 16.2 µM.
For the compound `COc1c(OC)c(OC)c(C(=O)/C=C/c2ccccc2)c(OC)c1OC`, the TGI came out at 26.4 µM.
As for `N#C/C=C(\c1ccc([N+](=O)[O-])cc1)n1nnc2cc(Cl)c(Cl)cc21`, the GI50 is 2.6 µM and the TGI was 4.16 µM.
The matching figures for `COc1cc(-c2nn(-c3cccc(NC(=O)Nc4ccc(Cl)c(Cl)c4)c3)cc2-c2ccncc2)ccc1Cl`: 1.43 µM and 40.9 µM.
Compound `CCSc1[nH]c(Nc2nc(-c3ccccc3)n(-c3ccccc3)n2)c(C(N)=O)c1C(N)=O` returned a TGI of over 10 µM.
On the same count and under the same terms, next, `O=c1cc(-c2ccccc2)[nH]c2c(S)cccc12`: over 100 µM; `Cc1ccc(-c2nc3ccc([N+](=O)[O-])cc3[nH]2)cc1`: over 100 µM.

A further assay concerns SK-OV-3 ovarian. Nature of the assay: NCI anticancer screen, dose series, 48 h.
Consider `Nc1nccc2c1ccn2-c1ccc(NC(=O)c2ccc(N3CCOCC3)c(C(F)(F)F)c2)cc1`, for which the GI50 was 2.44 µM and the TGI came out at 23.5 µM.
Take `Cc1[nH]c2ccccc2c1-c1cc(-c2cc(-c3c(C)[nH]c4ccccc34)on2)no1`: the TGI is over 100 µM.
In the case of `Cn1cnc([N+](=O)[O-])c1S(=O)(=O)Oc1ccccc1`, the GI50 is 97.5 µM and the TGI is over 100 µM.
The matching figures for `COc1cc(C2c3cc4c(cc3C(O)C(CO)C2CO)OCO4)cc(OC)c1OC` (centres undefined): 1.57 µM and over 100 µM.
The compound `CCCNC(=S)/N=C/c1c(O)c2ccccc2[nH]c1=O` displayed a TGI of over 100 µM.
As to `COC1C(O)=C2C(=O)O/C(C)=C/C=C/C=C/C=C\CC(c3ccccc3)NC(=O)\C=C/C=C\C=C\C=C\[C@@]2(C)[C@@H]1O` (some centres undefined), the TGI came to 0.188 µM.
Regarding `COc1ccc(-c2oc(=O)ccc2-c2cc(OC)c(OC)c(OC)c2)cc1F`, the GI50 is 80 µM and the TGI was over 100 µM.
For `CC(C)=CCc1cc(O)cc2c1OC(C=C(C)C)C1=C2C(=O)C2=C(NCCS2(=O)=O)C1=O` (centres undefined), in that order: 3.8 µM and 10.4 µM.
Compound `COc1c(OC)c(OC)c(C(=O)/C=C/c2ccccc2)c(OC)c1OC` came in with a TGI of 32.9 µM.
Consider `N#C/C=C(\c1ccc([N+](=O)[O-])cc1)n1nnc2cc(Cl)c(Cl)cc21`, for which the GI50 was 5.1 µM and the TGI amounted to 18.5 µM.
For `COc1cc(-c2nn(-c3cccc(NC(=O)Nc4ccc(Cl)c(Cl)c4)c3)cc2-c2ccncc2)ccc1Cl`, in that order: 1.93 µM and over 50 µM.
`CCSc1[nH]c(Nc2nc(-c3ccccc3)n(-c3ccccc3)n2)c(C(N)=O)c1C(N)=O` returned a TGI of over 10 µM.
The same measure, in the same setting: next, `O=c1cc(-c2ccccc2)[nH]c2c(S)cccc12`: over 100 µM.
The compound `Cc1ccc(-c2nc3ccc([N+](=O)[O-])cc3[nH]2)cc1` yielded a TGI of over 100 µM.

In the next assay the test system is HCC-2998 colon. Nature of the assay: NCI anticancer screen, dose series, 48 h.
On to `Nc1nccc2c1ccn2-c1ccc(NC(=O)c2ccc(N3CCOCC3)c(C(F)(F)F)c2)cc1`, for which the GI50 is 2.98 µM and the TGI was 29.1 µM.
In turn, `Cc1[nH]c2ccccc2c1-c1cc(-c2cc(-c3c(C)[nH]c4ccccc34)on2)no1` had a TGI of over 100 µM.
On to `Cn1cnc([N+](=O)[O-])c1S(=O)(=O)Oc1ccccc1`, for which the GI50 was 19.3 µM and the TGI was found to be 40.7 µM.
Consider `COc1cc(C2c3cc4c(cc3C(O)C(CO)C2CO)OCO4)cc(OC)c1OC` (centres undefined), for which the GI50 is 1.78 µM and the TGI was over 100 µM.
In the case of `CCCNC(=S)/N=C/c1c(O)c2ccccc2[nH]c1=O`, the TGI was over 100 µM.
On the same count and under the same terms, then `COC1C(O)=C2C(=O)O/C(C)=C/C=C/C=C/C=C\CC(c3ccccc3)NC(=O)\C=C/C=C\C=C\C=C\[C@@]2(C)[C@@H]1O` (some centres undefined), with 0.586 µM.
On to `COc1ccc(-c2oc(=O)ccc2-c2cc(OC)c(OC)c(OC)c2)cc1F`, for which the GI50 was 33.4 µM and the TGI is over 100 µM.
The matching figures for `CC(C)=CCc1cc(O)cc2c1OC(C=C(C)C)C1=C2C(=O)C2=C(NCCS2(=O)=O)C1=O` (centres undefined): 2.63 µM and 5.19 µM.
`COc1c(OC)c(OC)c(C(=O)/C=C/c2ccccc2)c(OC)c1OC`: the TGI came out at 29.7 µM.
Regarding `N#C/C=C(\c1ccc([N+](=O)[O-])cc1)n1nnc2cc(Cl)c(Cl)cc21`, the GI50 was 1.77 µM and the TGI worked out at 3.33 µM.
The matching figures for `COc1cc(-c2nn(-c3cccc(NC(=O)Nc4ccc(Cl)c(Cl)c4)c3)cc2-c2ccncc2)ccc1Cl`: 1.56 µM and 6.2 µM.
In turn, `CCSc1[nH]c(Nc2nc(-c3ccccc3)n(-c3ccccc3)n2)c(C(N)=O)c1C(N)=O` returned a TGI of over 10 µM.
Still for that read-out and setting: then `O=c1cc(-c2ccccc2)[nH]c2c(S)cccc12`, with over 100 µM; and `Cc1ccc(-c2nc3ccc([N+](=O)[O-])cc3[nH]2)cc1`, with over 100 µM.

The test system of a further assay is U251 CNS. Nature of the assay: NCI anticancer screen, dose series, 48 h.
Turning to `Nc1nccc2c1ccn2-c1ccc(NC(=O)c2ccc(N3CCOCC3)c(C(F)(F)F)c2)cc1`, the GI50 was 0.341 µM and the TGI turned out to be 5.19 µM.
With `Cc1[nH]c2ccccc2c1-c1cc(-c2cc(-c3c(C)[nH]c4ccccc34)on2)no1`, the TGI was over 100 µM.
As to `Cn1cnc([N+](=O)[O-])c1S(=O)(=O)Oc1ccccc1`, the GI50 is 23.5 µM and the TGI was over 66.3 µM.
For `COc1cc(C2c3cc4c(cc3C(O)C(CO)C2CO)OCO4)cc(OC)c1OC` (centres undefined), in that order: 0.587 µM and over 100 µM.
`CCCNC(=S)/N=C/c1c(O)c2ccccc2[nH]c1=O` displayed a TGI of over 100 µM.
As for `COC1C(O)=C2C(=O)O/C(C)=C/C=C/C=C/C=C\CC(c3ccccc3)NC(=O)\C=C/C=C\C=C\C=C\[C@@]2(C)[C@@H]1O` (some centres undefined), the TGI worked out at 0.0195 µM.
On to `COc1ccc(-c2oc(=O)ccc2-c2cc(OC)c(OC)c(OC)c2)cc1F`, for which the GI50 was 14.5 µM and the TGI is over 100 µM.
`CC(C)=CCc1cc(O)cc2c1OC(C=C(C)C)C1=C2C(=O)C2=C(NCCS2(=O)=O)C1=O` (centres undefined): the GI50 was 2.79 µM and the TGI came out at 5.25 µM.
For the compound `COc1c(OC)c(OC)c(C(=O)/C=C/c2ccccc2)c(OC)c1OC`, the TGI turned out to be 20.5 µM.
`N#C/C=C(\c1ccc([N+](=O)[O-])cc1)n1nnc2cc(Cl)c(Cl)cc21`: the GI50 is 1.71 µM and the TGI came out at 3.37 µM.
